From patent US5276049A, “Cyclic urea derivatives, pharmaceutical compositions containing these compounds and methods of using the same” (Dr. Karl Thomae GmbH, priority 1991, dated 1994) come the findings set out here.

For one test, the system named is Human Thrombocytes. In words: Fibrinogen Binding to Human Thrombocytes (I125-fibrinogen, gel-filtered platelets). The conditions noted are these: inhibition of I125-fibrinogen binding to gel-filtered human platelets, ADP, 20 minutes, ambient temperature; read-out: Fibrinogen Binding test IC50. How it is done:
1. Fibrinogen Binding to Human Thrombocytes Blood obtained by puncture of an antecubital vein was anticoagulated with trisodium citrate (final concentration: 13 mM) and centrifuged for 10 minutes at 170 *g. The supernatant platelet-rich plasma was placed on a Sepharose 2B column (Pharmacia) and eluted with a solution of 90 mM common salt, 14 mM trisodium citrate, 5 mM glucose and 50 mM tris(hydroxymethyl)aminomethane, adjusted to pH 7.4. The gel-filtered platelets (GFP) appearing in front of the plasma proteins were used for the binding tests. 50 μl of a 60 mM calcium chloride solution, 50 μl of a 0.6 mM adenosine diphosphate solution, 100 μl of substance solution or solvent and 50 μl of fibrinogen solution (containing 3 μg I125-fibrinogen) were added to 750 μl of GFP and incubated for 20 minutes at ambient temperature. The non-specific binding was measured in the presence of 3 mg/ml of cold fibrinogen. 900 μl of the incubate were carefully pipetted onto 250 μl of silicon oil (AP 38: AR 20, 1:2 v/v, Wacker Chemie) in Eppendorf vessels and centrifuged for 2 minutes at 10,000 *g. The aqueous supernatant and some of the oil were removed, the tip of the vessel with the platelet pellet was cut off and the quantity of bound fibrinogen was measured in a gamma-counter. The concentration of substance which inhibited fibrinogen binding by 50% was calculated from a series of concentrations and given as the IC50.

Test [1] has as its system thrombocyte aggregation in platelet-rich plasma. In words: Antithrombotic effect: collagen-induced thrombocyte aggregation in platelet-rich plasma (Born and Cross). The format is cell-based. The conditions noted are these: human platelet-rich plasma, 10 minutes preincubation at 37° C., read-out: Inhibition of platelet aggregation EC50. How it is done: 2. Antithrombotic Effect Method: The thrombocyte aggregation was measured in platelet-rich plasma from healthy test subjects using the Born and Cross method (J. Physiol. 170: 397 (1964)). In order to inhibit coaggulation the blood was mixed with 3.14% sodium citrate in a ratio by volume of 1:10. Collagen-induced aggregation: The decrease in the optical density of the platelet suspension was measured photometrically and recorded after the addition of the aggregation-initiating substance. The speed of aggregation was concluded from the angle of inclination of the density curve. The point on the curve at which there was maximum transmittance was used to calculate the optical density. The quantity of collagen used was as little as possible but sufficient to give an irreversible reaction curve. Standard commercial collagen produced by Hormonchemie of Munich was used. Before the addition of collagen the plasma was incubated with the substance for 10 minutes at 37° C. From the measurements obtained, an EC50 was determined graphically, relating to a 50% change in the optical density in terms of inhibiting aggregation.

Counter-ions that a name gives are not always drawn. Bounds are passed on as bounds.

By IC50 is commonly meant the concentration at which inhibition is half-maximal. The EC50 is the concentration that produces a half-maximal response.

In the case of `COC(=O)CCN1CC(c2ccc(-c3ccc(C(=N)N)cc3)cc2)N(c2ccccc2)C1=O` (stereo not drawn) [4(9), 4-(4'-amidino-4-biphenylyl)-1-(2-methoxycarbonyl-ethyl)-3-phenyl-imidazolidin-2-one hydrochloride], the IC50 with Human Thrombocytes came to 2600 nM. Moreover, the EC50 in test [1] is 9500 nM. The matching figures for `COC(=O)COc1ccc(N2CCN(c3ccc(CN)cc3)C2=O)cc1` [Example 8, 1-(4-Aminomethyl-phenyl)-3-(4-methoxycarbonylmethyloxy-phenyl)-imidazolidin-2-one hydrochloride]: 750 nM and 600 nM.

For `COC(=O)CCc1ccc(-n2ccn(-c3ccc(C(=N)NC(=O)OC)cc3)c2=O)cc1` [5(8), 1-(4-methoxycarbonylamidino-phenyl)-3-[4-(2-methoxycarbonyl-ethyl)-phenyl]-3H-imidazol-2-one], the IC50 in the test on Human Thrombocytes turned out to be 8000 nM. The concentration giving a half-maximal response (EC50) in test [1] was found to be 31000 nM. The matching figures for `N=C(N)c1ccc(N2CCN(c3ccc(S(=O)(=O)CC(=O)O)cc3)C2=O)cc1` [1(50), 1-(4-amidino-phenyl)-3-(4-carboxymethylsulphonylphenyl)-imidazolidin-2-one]: 45 nM and 290 nM. For the molecule `N=C(N)c1ccc(N2CCN(c3ccc(CCC(=O)O)cc3)C2=O)cc1` [1(6), 1-(4-amidino-phenyl)-3-[4-(2-carboxy-ethyl)-phenyl]-imidazolidin-2-one], the IC50 in the test on Human Thrombocytes was determined as 17 nM. The 50% effective concentration (EC50) in test [1] is 70 nM.

As for `Cc1cc(C(=N)N)ccc1N1CCN(c2ccc(CCC(=O)O)cc2)C1=O` [1(36), 1-(4-amidino-2-methyl-phenyl)-3-[4-(2-carboxy-ethyl)-phenyl]-imidazolidin-2-one], the IC50 in the test on Human Thrombocytes was found to be 37 nM. Further, in test [1], the EC50 was 100 nM.

Take `COC(=O)CCc1ccc(N2CCN(c3ccc(C(=N)N)cc3)C2=O)cc1` [2(6), 1-(4-amidino-phenyl)-3-[4-(2-methoxycarbonyl-ethyl)-phenyl]-imidazolidin-2-one hydrochloride]: the IC50 in the test with Human Thrombocytes was 240 nM. For the same molecule, in test [1], the EC50 was determined as 160 nM.

On to `COC(=O)c1ccc(CCN2CCN(c3ccc(C(=N)N)cc3)C2=O)cc1` [2(48), 1-(4-amidino-phenyl)-3-[2-(4-methoxycarbonyl-phenyl)-ethyl]-imidazolidin-2-one], for which, in the test on Human Thrombocytes, the IC50 amounted to 22000 nM. Moreover, in test [1], the EC50 was over 100000 nM. The like results for `COC(=O)CCn1cc(-c2ccc(-c3ccc(C(=N)N)cc3)cc2)n(C)c1=O` [2(105), 4-(4'-amidino-4-biphenylyl)-1-(2-methoxycarbonyl-ethyl)-3-methyl-3H-imidazol-2-one hydrochloride] were, in that order, 28000 nM and 1100 nM. In the case of `COC(=O)CCC1CCC(N2CCN(c3ccc(C(=N)NC(=O)OC)cc3)C2=O)CC1` (stereo not drawn) [5(12), 1-(4-methoxycarbonylamidino-phenyl)-3-[4-(2-methoxycarbonyl-ethyl)-cyclohexyl]-imidazolidin-2-one], the 50% inhibitory concentration (IC50) in the test with Human Thrombocytes amounted to 3700 nM.

With `COC(=O)CCCCN1CCN(c2ccc(C(=N)N)cc2)C1=O` [2(71), 1-(4-amidino-phenyl)-3-(4-methoxycarbonyl-butyl)-imidazolidin-2-one hydrochloride], the IC50 in the test with Human Thrombocytes was 13000 nM. Besides, in test [1], the EC50 is 14000 nM.

Consider `Cc1cc(CN)ccc1N1CCN(c2ccc(CCC(=O)O)cc2)C1=O` [1(156), 1-(4-aminomethyl-2-methyl-phenyl)-3-[4-(2-carboxy-ethyl)-phenyl]-imidazolidin-2-one], for which, in the test with Human Thrombocytes, the IC50 is 3600 nM. Besides, the EC50 in test [1] worked out at 4100 nM.

For the molecule `CCOC(=O)CCc1ccc(-n2ccn(-c3ccc(C(=N)NC(=O)OCC)cc3)c2=O)cc1` [Example 5, 1-(4-Ethoxycarbonylamidino-phenyl)-3-[4-(2-ethoxycarbonyl-ethyl)-phenyl]-3H-imidazol-2-one], the half-maximal inhibitory concentration (IC50) with Human Thrombocytes was 9300 nM. The EC50 in test [1] came to 32000 nM.

With `COC(=O)CCc1ccc(-n2c(C)cn(-c3ccc(C(=N)N)cc3)c2=O)cc1` [2(115), 1-(4-amidino-phenyl)-3-[4-(2-methoxycarbonyl-ethyl)-phenyl]-4-methyl-3H-imidazol-2-one hydrochloride], in the test on Human Thrombocytes, the half-maximal inhibitory concentration (IC50) was determined as 530 nM. Moreover, the EC50 in test [1] is 80 nM. The matching figures for `N=C(N)c1ccc(-n2ccn(-c3ccc(CC(N)C(=O)O)cc3)c2=O)cc1` (stereo not drawn) [1(148), 1-(4-amidino-phenyl)-3-[4-(2-amino-2-carboxy-ethyl)-phenyl]-3H-imidazol-2-one]: 25 nM and 110 nM.

For `N=C(N)c1ccc(-c2cn(-c3ccc(CCC(=O)O)cc3)c(=O)n2-c2ccccc2)cc1` [1(94), 4-(4-amidino-phenyl)-1-[4-(2-carboxy-ethyl)-phenyl]-3-phenyl-3H-imidazol-2-one hydrochloride], the IC50 with Human Thrombocytes amounted to 310 nM. In test [1], the EC50 worked out at 400 nM. The like results for `N=C(N)c1ccc(-n2ccn(-c3ccc(CCC(=O)O)cc3)c2=O)cc1` [1(67), 1-(4-amidino-phenyl)-3-[4-(2-carboxy-ethyl)-phenyl]-3H-imidazol-2-one] were, in that order, 30 nM and 60 nM. The like results for `NC1CCc2cc(N3CCN(c4ccc(CCC(=O)O)cc4)C3=O)ccc21` (stereo not drawn) [1(154), 1-(1-amino-5-indanyl)-3-[4-(2-carboxy-ethyl)-phenyl] -imidazolidin-2-one] were, in that order, 28 nM and 310 nM. The matching figures for `N=C(N)c1ccc(-c2ccc(N3CCN(CCC(=O)O)C3=O)nn2)cc1` [1(28), 1-[6-(4-amidino-phenyl)-3-pyridazinyl]-3-(2-carboxy-ethyl)-imidazolidin-2-one]: 52 nM and 390 nM. Regarding `COC(=O)CCc1ccc(N2CCN(c3ccc(C(=N)N)cc3)S2(=O)=O)cc1` [2(57), 2-(4-amidino-phenyl)-5-[4-(2-methoxycarbonyl-ethyl)-phenyl]-3,4-dihydro-2H,5H-1,2,5-thiadiazole-1,1-dioxide hydrochloride], the IC50 with Human Thrombocytes came to 640 nM. In test [1], the EC50 was found to be 320 nM. Turning to `COC(=O)CCc1ccc(-n2ncn(-c3ccc(C(=N)N)cc3)c2=O)cc1` [2(124), 4-(amidino-phenyl)-2-[4-(2-methoxycarbonyl-ethyl)-phenyl]-4H-1,2,4-triazol-3-one hydrochloride], the EC50 in test [1] is 130 nM. The same measure, in the same setting: with `COC(=O)CSc1ccc(N2CCN(c3ccc(C(=N)N)cc3)C2=O)cc1` [2(45), 1-(4-amidino-phenyl)-3-(4-methoxycarbonyl-methylthio-phenyl)-imidazolidin-2-one] the figure was 280 nM; with `COC(=O)CCc1ccc(-n2nc(C)n(-c3ccc(C(=N)N)cc3)c2=O)cc1` [2(117), 4-(4-amidino-phenyl)-2-[4-(2-methoxycarbonyl-ethyl)-phenyl]-5-methyl-4H-1,2,4-triazol-3-one hydrochloride], 630 nM. The same measure, in the same setting: with `Cc1nn(-c2ccc(C(=N)N)cc2)c(=O)n1-c1ccc(CCC(=O)OC(C)C)cc1` [11(11), 2-(4-amidino-phenyl)-4-[4-(2-isopropyloxycarbonyl-ethyl)-phenyl]-5-methyl-4H-1,2,4-triazol-3-one hydrochloride] the figure was 210 nM.

Regarding `COC(=O)CS(=O)(=O)c1ccc(N2CCN(c3ccc(C(=N)N)cc3)C2=O)cc1` [Example 18, 1-(4-Amidino-phenyl)-3-(methoxycarbonylmethylsulphonyl-phenyl)-imidazolidin-2-one], in test [1], the EC50 stood at 240 nM. `COC(=O)CCc1ccc(-n2cnn(-c3ccc(C(N)=NC(=O)OC)cc3)c2=O)cc1` [5(11), 2-(4-methoxycarbonylamidino-phenyl)-3-[4-(2-methoxycarbonyl-ethyl)-phenyl]-4H-1,2,4-triazol-3-one]: in the test on Human Thrombocytes, the IC50 came to 5700 nM. As for `COC(=O)CCc1ccc(-n2cc(C)n(-c3ccc(C(=N)N)cc3)c2=O)cc1` [2(122), 3-(4-amidino-phenyl)-1-[4-(2-methoxycarbonyl-ethyl)-phenyl]-4-methyl-3H-imidazol-2-one hydrochloride-hydrate], the EC50 in test [1] was 1200 nM.

Turning to `Cc1cn(-c2ccc(CCC(=O)O)cc2)c(=O)n1-c1ccc(C(=N)N)cc1` [1(144), 3-(4-amidino-phenyl)-1-[4-(2-carboxy-ethyl)-phenyl]-4-methyl-3H-imidazol-2-one], the EC50 in test [1] was 600 nM. On the same count and under the same terms, with `Cc1nn(-c2ccc(CCC(=O)O)cc2)c(=O)n1-c1ccc(C(=N)N)cc1` [1(137), 4-(4-amidino-phenyl)-2-[4-(2-carboxy-ethyl)-phenyl]-5-methyl-4H-1,2,4-triazol-3-one] the figure was 280 nM.
